Measurements as given in patent publication US11504399B2, “Combination therapy for a stable and long term engraftment using specific protocols for T/B cell depletion” (Yeda Research and Development Co. Ltd., priority 2011, dated 2022).
Like-named read-outs stand apart in the source and are kept apart here.

Key:
[1] = system: allogeneic recipients (C3H/Hen) of Balb/c-Nude BM cells; conditions: for donor type chimerism expressed: regular dose 5×10^6 T cell depleted BM, TCD, monohydrate
Description: Mice used in these studies were 6-12 week old female mice. Balb/c-Nude (H-2d) and C3H/Hen (H-2k) were purchased from Harlan Israel (Rehovot, Israel). All mice were kept in small cages (5 animals in each cage) and fed sterile food and acid water. These studies were approved by the Weizmann Institute of Science, Institutional Animal Care and Use Committee.
(§1) Low (5×10^6) and high dose (25×10^6) Balb/c-Nude BM cells (providing a source of BM depleted of T cells) were transplanted into allogeneic recipients (C3H/Hen) on day 0 following in-vivo T cell debulking (TCD) with anti-CD4 (clone GK1.5) and anti-CD8 (clone 53.6.72) antibodies (300 μg each; Bio X Cell, NH, USA) delivered on day −6, and exposure to 2.0 Gy total body irradiation (TBI) on day −1. High dose Cyclophosphamide (CY, 100 mg/kg, Baxter Oncology, Germany) was administered on days +3 and +4 post transplant and donor type chimerism was evaluated 35 and 95 days post transplant using fluorescein anti-host and donor H-2 antibodies (e.g. FlTC labeled anti-H-2D^d antibody specific for donor type cells and PE labeled anti-H-2K^k antibody specific for host type cells).
Recipient mice (C3H/Hen) were treated with a conditioning protocol prior to transplantation of a T cell depleted bone marrow transplant. Specifically, mice were in-vivo treated with T cell debulking (TCD) using anti-CD4 and anti-CD8 antibodies delivered on day −6 and by exposure to 2.0 Gy total body irradiation (TBI) on day −1. Next, low (5×10^6) or high dose (25×10^6) Balb/c-Nude BM cells (providing a source of BM depleted of T cells, as Nude mice have miniscule numbers of mature T cells) were transplanted into allogeneic recipients (C3H/Hen) on day 0. High dose cyclophosphamide (CY, 100 mg/kg) was administered on days +3 and +4 post transplant. Evaluation of bone marrow cell engraftment was evaluated by donor type chimerism at 35 and 95 days post transplant.
as §1, with “High” for “Low (5×10^6) and high”, “different doses of irradiation ranging from 1 to 3.5” for “2.0”, “TBI” for “total body irradiation (TBI)”, “30” for “35 and 95”
High dose Cyclophosphamide (CY) was administered on days +3 and +4 post transplant and donor type chimerism was evaluated at 30 days post transplant.
as §1, with “High dose” for “Low (5×10^6) and high dose”, “−1. Different doses of” for “−1. High dose”, “mg/kg, 125 mg/kg or 150 mg/kg,” for “mg/kg,”, “Germany) were” for “Germany) was”, “evaluated 30” for “evaluated 35 and 95”

[2] = system: C3H/Hen recipient mice with Balb/c and C57BL/6 skin grafts
Method: Donor (Balb/c) and 3rd party (C57BL/6) skin grafts were transplanted to the mixed chimeric recipients as described above [i.e. to those mice which were previously transplanted with mega dose (25×10^6) T cell depleted BM and were treated with high dose CY] and to the recipient mice that were inoculated with a regular (5×10^6) T cell depleted BM cell dose and were treated with high dose CY.
Tolerance induction was measured by transplantation of donor (Balb/c) and 3rd party (C57BL/6) skin grafts to the mixed chimeric recipients that were transplanted with mega dose (25×10^6) T cell depleted BM and were treated with high dose CY (as described above), in comparison to the recipients that were inoculated with a regular (5×10^6) T cell depleted BM cell dose (as described above).

Structure (SMILES): O.O=P1(N(CCCl)CCCl)NCCCO1 (stereo not drawn) [CY, 2-[bis(2-chloroethyl)amino]tetrahydro-2H-1,3,2-oxazaphosphorine 2-oxide monohydrate]
- mixed chimerism ([1]; 5×10^6 T cell depleted BM and CY, 180 and 225 days post transplant): did not exhibit mixed chimerism
- percentage of chimeric mice ([1]; 25×10^6 BM, 1.0 Gy TBI, CY 100 mg/kg days +3 and +4, 30 days post transplant (5/6)): 83%
- percentage of chimeric mice ([1]; 25×10^6 BM, 2 Gy TBI, CY 100 mg/kg days +3 and +4, 30 days post transplant (13/15)): 87%
- chimeric recipient mice ([1]; 25×10^6 BM, 2.5, 3 or 3.5 Gy TBI, CY 100 mg/kg days +3 and +4, 30 days post transplant): 6/6
- effect of depletion of CD8+ cells from the BM preparation on level of chimerism ([1]; 25×10^6 CD8 depleted vs non-depleted Balb/c-Nude BM, 2 Gy TBI, CY 100 mg/kg days +3 and +4, 30 days): did not have any adverse impact
- number of donor type chimeric recipients and level of donor chimerism ([1]; 25×10^6 T cell depleted BM and CY, follow-up 180 and 225 days post transplant): remained unchanged
- mice with durable mix chimerism ([1]; 25×10^6 T cell depleted BM, TCD day −6, 2 Gy TBI day −1, CY 100 mg/kg days +3 and +4, day 35 and day 95): 4 out of 7
- effect of increasing CY dose on chimerism ([1]; CY 125 mg/kg or 150 mg/kg compared to 100 mg/kg, 25×10^6 BM, 2 Gy TBI, 30 days): did not provide a significant enhancement of chimerism
- donor type chimerism expressed ([1]; 2 Gy TBI, CY 100 mg/kg days +3 and +4, day 35 and day 95, listed as cyclophosphamide): none
- donor type chimerism expressed ([1]; 2 Gy TBI, CY 100 mg/kg days +3 and +4, day 35 and day 95): did not exhibit donor type chimerism
- skin graft outcome ([2]; 5×10^6 T cell depleted BM cells and CY): rejected both the donor and 3rd party skin grafts
- chimeric mice that accepted the donor graft and rejected the 3rd party skin grafts ([2]; 25×10^6 T cell depleted BM, high dose CY days +3 and +4): three out of 4
